Read-outs that look alike come from different tables or passages of the source.
Legend:
Assay type in all cases: cell-based
SSTR5 = biological target: T1, SSTR5 (Homo sapiens, UniProt P35346); experiment: cAMP functional agonist assay, CHO cells expressing SSTR5; conditions: CHO cells stably expressing SSTR5, cAMP
T1 construct: expressed in transfected cells
Protocol: (§1) Chinese hamster ovary (CHO) cells stably expressing one of the six human or rodent somatostatin receptor subtypes are grown to 85-100% confluence on standard tissue culture dishes in F12-Ham's growth media (Hyclone) with following additives: 10% donor calf serum (Hyclone), 200 U/mL penicillin (Hyclone), 200 μg/mL streptomycin (Hyclone), 20 mM HEPES (Hyclone), 200 μg/mL hygromycin Hyclone.
(§2) General overview: All SSTR subtypes are Gi coupled G-protein coupled receptors (GPCRs) that lead to decreases in intracellular cyclic AMP (cAMP) when activated by an agonist. Therefore, measurement of intracellular cAMP levels can be used to assess whether compounds of the invention are agonists of SSTR subtypes (John Kelly, Troy Stevens, W. Joseph Thompson, and Roland Seifert, Current Protocols in Pharmacology, 2005, 2.2.1-2.2). One example of an intracellular cAMP assay is described below.

[1] = biological target: T2, human somatostatin receptor subtype 2a (Homo sapiens, UniProt P30874); experiment: cAMP assay for SSTR2a agonists (HTRF cAMP kit, NKH-477 stimulated); conditions: CHO cells stably expressing human SSTR2a, 1.6 μM NKH-477
T2 construct: expressed in transfected cells
Protocol: as §1, §2
Four days prior to the assay, 5000 Chinese hamster ovary (CHO) cells stably expressing the human somatostatin receptor subtype 2a are plated in each well of a 96-well tissue culture plate (Nest Biotech Cell, flat bottom with low evaporation tissue culture treated; Polystyrene; Non-Pyrogenic) in F12-Ham's media (100 μL/well) supplemented with 200 μg/mL of hygromycin. Incubate at 37 C, 5% CO2, 95% humidity for four days. The cells should reach full confluence. On the day of the assay, various dilutions of the compounds of the invention are prepared in assay buffer (HRTF cAMP kit, Cisbio) in the presence of 1.6 μM NKH-477 (a water-soluble forskolin derivative) and 50 μL of the dilutions are added to the cultured cells and incubated for 20 minutes at 37° C. […] 50 μL of lysis buffer (HRTF cAMP kit, Cisbio) is added to each well and incubated at room temperature for 30 minutes, after which 150 μL assay buffer is added to each well. In a 384-well plate (Grenier, 784-080), 10 μL of assay mixture is added to 10 μL of developing mixture, containing cAMP detection and visualization antibodies are added and the assay is allowed incubate for 1-24 hours at room temperature. The intracellular cAMP concentrations are then measured using a commercially available detection kit (for example, the cAMP HTRF kit, Cisbio). The measured intracellular cAMP concentrations are plotted vs. the concentration of the compounds of the invention and the EC50 of the compounds are calculated using standard methods.

SSTR4 = biological target: T3, SSTR4 (Homo sapiens, UniProt P31391); experiment: cAMP functional agonist assay, CHO cells expressing SSTR4
T3 construct: expressed in transfected cells
Protocol: as §1
(§3) General overview: All SSTR subtypes are Gi coupled G-protein coupled receptors (GPCRs) that lead to decreases in intracellular cyclic AMP (cAMP) when activated by an agonist. […] One example of an intracellular cAMP assay is described below.

SSTR3 = SSTR3 (UniProt P32745); experiment: cAMP functional agonist assay, CHO cells expressing SSTR3; conditions: CHO cells stably expressing SSTR3, cAMP
Protocol: as §1, §2

SSTR1 = biological target: T4, SSTR1 (Homo sapiens, UniProt P30872); experiment: cAMP functional agonist assay, CHO cells expressing SSTR1
T4 construct: expressed in transfected cells
Protocol: as §1, §3

[2] = CHO cells stably expressing SSTR4, cAMP, read-out: SSTR4 EC50

T2 sequence (P30874 whole entry): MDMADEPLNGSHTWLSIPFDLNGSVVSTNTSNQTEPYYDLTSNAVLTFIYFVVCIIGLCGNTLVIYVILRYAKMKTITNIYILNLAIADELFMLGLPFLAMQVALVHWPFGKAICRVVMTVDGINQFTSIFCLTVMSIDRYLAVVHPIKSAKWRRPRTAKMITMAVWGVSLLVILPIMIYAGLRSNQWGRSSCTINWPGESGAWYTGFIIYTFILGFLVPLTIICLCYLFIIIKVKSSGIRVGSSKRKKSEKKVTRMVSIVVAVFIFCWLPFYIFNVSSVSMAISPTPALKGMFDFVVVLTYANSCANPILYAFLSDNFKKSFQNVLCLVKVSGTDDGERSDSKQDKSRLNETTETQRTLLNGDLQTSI
SSTR3, sequence (P32745 whole entry): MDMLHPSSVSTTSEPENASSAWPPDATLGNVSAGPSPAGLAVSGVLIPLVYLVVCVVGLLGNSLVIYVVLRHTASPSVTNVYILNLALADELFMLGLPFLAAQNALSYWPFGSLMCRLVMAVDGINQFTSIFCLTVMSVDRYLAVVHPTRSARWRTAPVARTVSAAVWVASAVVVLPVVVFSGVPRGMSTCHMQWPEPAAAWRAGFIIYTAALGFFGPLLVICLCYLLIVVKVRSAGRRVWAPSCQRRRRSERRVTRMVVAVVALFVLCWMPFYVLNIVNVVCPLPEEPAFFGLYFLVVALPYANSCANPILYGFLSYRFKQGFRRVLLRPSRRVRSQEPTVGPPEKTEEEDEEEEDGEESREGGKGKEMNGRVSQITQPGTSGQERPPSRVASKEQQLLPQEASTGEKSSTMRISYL
T3 sequence (P31391 whole entry): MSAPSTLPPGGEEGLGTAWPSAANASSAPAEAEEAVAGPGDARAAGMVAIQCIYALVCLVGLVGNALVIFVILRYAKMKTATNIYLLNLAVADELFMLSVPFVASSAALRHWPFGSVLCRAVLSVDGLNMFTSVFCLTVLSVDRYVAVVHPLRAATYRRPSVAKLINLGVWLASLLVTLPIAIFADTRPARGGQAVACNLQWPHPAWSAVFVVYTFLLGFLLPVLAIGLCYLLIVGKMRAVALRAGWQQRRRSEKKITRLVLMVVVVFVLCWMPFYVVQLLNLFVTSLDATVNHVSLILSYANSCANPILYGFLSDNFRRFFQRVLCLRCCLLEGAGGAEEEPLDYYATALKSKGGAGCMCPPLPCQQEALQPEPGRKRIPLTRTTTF
T4 sequence (P30872 whole entry): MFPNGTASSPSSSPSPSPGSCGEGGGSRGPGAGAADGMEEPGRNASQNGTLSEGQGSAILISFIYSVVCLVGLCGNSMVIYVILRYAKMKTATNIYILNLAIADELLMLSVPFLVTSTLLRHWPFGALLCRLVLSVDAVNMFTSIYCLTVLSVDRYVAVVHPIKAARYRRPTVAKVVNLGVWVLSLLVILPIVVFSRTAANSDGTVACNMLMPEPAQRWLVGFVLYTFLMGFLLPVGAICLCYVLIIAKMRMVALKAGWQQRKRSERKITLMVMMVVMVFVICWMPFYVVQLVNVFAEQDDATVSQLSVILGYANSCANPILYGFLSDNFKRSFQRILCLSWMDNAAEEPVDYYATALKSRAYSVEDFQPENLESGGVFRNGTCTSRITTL
T1 sequence (P35346 whole entry): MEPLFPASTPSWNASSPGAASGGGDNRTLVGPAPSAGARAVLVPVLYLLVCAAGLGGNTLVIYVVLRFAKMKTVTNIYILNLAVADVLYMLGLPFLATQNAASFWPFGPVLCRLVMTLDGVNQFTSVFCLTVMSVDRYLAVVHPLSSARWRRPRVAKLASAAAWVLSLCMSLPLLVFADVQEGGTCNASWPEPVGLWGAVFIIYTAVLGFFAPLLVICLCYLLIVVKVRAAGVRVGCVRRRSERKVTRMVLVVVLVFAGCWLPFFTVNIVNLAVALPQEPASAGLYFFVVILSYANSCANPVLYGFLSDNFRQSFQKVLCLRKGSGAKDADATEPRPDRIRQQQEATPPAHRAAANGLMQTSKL

Compound	EC50 (SSTR5) [nM]	EC50 [1] [nM]	EC50 (SSTR4; [2]) [nM]	EC50 (SSTR3) [nM]	EC50 (SSTR1) [nM]	EC50 (SSTR4) [nM]
Cc1cc(C)cc(-c2cnc3ncn(-c4cccc(O)c4)c(=O)c3c2CN(C)CCNCc2ccccc2)c1 [Compound A-6, 5-({[2-(benzylamino)ethyl](methyl)amino}methyl)-6-(3,5-dimethylphenyl)-3-(3-hydroxyphenyl)-3H,4H-pyrido[2,3-d]pyrimidin-4-one]	> 10000	100 to 10000	100 to 10000			
3-[5-({[(2S)-2-aminobutyl](methyl)amino}methyl)-6-(3,5-dimethylphenyl)-4-oxo-3H,4H-pyrido[2,3-d]pyrimidin-3-yl]-5-fluorobenzamide [Compound A-64]	100 to 10000	< 100	100 to 10000	100 to 10000		
Cc1ccccc1-c1cnc2ncn(-c3cccc(O)c3)c(=O)c2c1CN(C)CC1CCCCN1 (stereo not shown) [Compound A-20, 3-(3-hydroxyphenyl)-5-{[methyl(piperidin-2-ylmethyl)amino]methyl}-6-(2-methylphenyl)-3H,4H-pyrido[2,3-d]pyrimidin-4-one]	> 10000	100 to 10000	< 100	100 to 10000		
Cc1cc(Cl)cc(-c2cnc3ncn(-c4cccc(C(N)=O)c4)c(=O)c3c2CN(C)C[C@@H]2CCCN2)c1 [Compound A-31, 3-[6-(3-chloro-5-methylphenyl)-5-({methyl[(2S)-pyrrolidin-2-ylmethyl]amino}methyl)-4-oxo-3H,4H-pyrido[2,3-d]pyrimidin-3-yl]benzamide]		< 100	< 100	100 to 10000		
COc1cccc(-c2cnc3ncn(-c4cccc(O)c4)c(=O)c3c2CN(C)CC2CCCCN2)c1 (stereo not shown) [Compound A-23, 3-(3-hydroxyphenyl)-6-(3-methoxyphenyl)-5-{[methyl(piperidin-2-ylmethyl)amino]methyl}-3H,4H-pyrido[2,3-d]pyrimidin-4-one]		< 100	< 100	< 100		
Cc1cc(C)cc(-c2cnc3ncn(-c4cccc(O)c4)c(=O)c3c2CN(CCN)Cc2ccccc2)c1 [Compound A-5, 5-{[(2-aminoethyl)(benzyl)amino]methyl}-6-(3,5-dimethylphenyl)-3-(3-hydroxyphenyl)-3H,4H-pyrido[2,3-d]pyrimidin-4-one]	> 10000	100 to 10000	< 100	100 to 10000		
Cc1cc(CO)cc(-c2cnc3ncn(-c4cccc(O)c4)c(=O)c3c2CN(C)C[C@@H]2CCCN2)c1 [Compound A-37, 6-[3-(hydroxymethyl)-5-methylphenyl]-3-(3-hydroxyphenyl)-5-({methyl[(2S)-pyrrolidin-2-ylmethyl]amino}methyl)-3H,4H-pyrido[2,3-d]pyrimidin-4-one]	> 10000	< 100	< 100	100 to 10000		
Cc1cc(C)cc(-c2cnc3ncn(-c4cccc(O)c4)c(=O)c3c2CN(C)CC2CCCCN2)c1 (stereo not shown) [Compound A-13, 6-(3,5-dimethylphenyl)-3-(3-hydroxyphenyl)-5-{[methyl(piperidin-2-ylmethyl)amino]methyl}-3H,4H-pyrido[2,3-d]pyrimidin-4-one]	> 10000			< 100	100 to 10000	< 100
Cc1cc(Cl)cc(-c2cnc3ncn(-c4cccc(O)c4)c(=O)c3c2CN(C)C[C@@H]2CCCN2)c1 [Compound A-30, 6-(3-chloro-5-methylphenyl)-3-(3-hydroxyphenyl)-5-({methyl[(2S)-pyrrolidin-2-ylmethyl]amino}methyl)-3H,4H-pyrido[2,3-d]pyrimidin-4-one]	100 to 10000			< 100	100 to 10000	< 100
CN(Cc1c(-c2cc(F)cc(Cl)c2)cnc2ncn(-c3cccc(O)c3)c(=O)c12)C[C@@H]1CCCN1 [Compound A-35, 6-(3-chloro-5-fluorophenyl)-3-(3-hydroxyphenyl)-5-({methyl[(2S)-pyrrolidin-2-ylmethyl]amino}methyl)-3H,4H-pyrido[2,3-d]pyrimidin-4-one]	100 to 10000			< 100	100 to 10000	< 100
CC(C)c1cccc(-c2cnc3ncn(-c4cccc(O)c4)c(=O)c3c2CN(C)CC2CCCCN2)c1 (stereo not shown) [Compound A-22, 3-(3-hydroxyphenyl)-5-{[methyl(piperidin-2-ylmethyl)amino]methyl}-6-[3-(propan-2-yl)phenyl]-3H,4H-pyrido[2,3-d]pyrimidin-4-one]		100 to 10000	< 100			

Next, values leading:

EC50 (SSTR5) [nM]	EC50 [1] [nM]	EC50 (SSTR4; [2]) [nM]	EC50 (SSTR3) [nM]	EC50 (SSTR1) [nM]	EC50 (SSTR4) [nM]	Compound
> 10000	< 100	< 100	100 to 10000			Cc1cc(Cl)cc(-c2cnc3ncn(-c4cc(O)cc(OC(F)(F)F)c4)c(=O)c3c2CN(C)C[C@@H]2CCCN2)c1 [Compound A-52, 6-(3-chloro-5-methylphenyl)-3-[3-hydroxy-5-(trifluoromethoxy)phenyl]-5-({methyl[(2S)-pyrrolidin-2-ylmethyl]amino}methyl)-3H,4H-pyrido[2,3-d]pyrimidin-4-one]
	< 100	< 100	< 100			Cc1cc(Cl)cc(-c2cnc3ncn(-c4cc(O)cc(C#N)c4)c(=O)c3c2CN(C)C[C@@H]2CCCN2)c1 [Compound A-71, 6-(3-methyl-5-chlorophenyl)-3-(3-cyano-5-hydroxyphenyl)-5-({methyl[(2S)-pyrrolidin-2-ylmethyl]amino}methyl)-3H,4H-pyrido[2,3-d]pyrimidin-4-one]
	100 to 10000	< 100	100 to 10000			Cc1cc(C)cc(-c2cnc3ncn(-c4cc(F)cc(C#N)c4)c(=O)c3c2CN(C)C[C@@H]2CCCN2)c1 [Compound A-46, 3-[6-(3,5-dimethylphenyl)-5-({methyl[(2S)-pyrrolidin-2-ylmethyl]amino}methyl)-4-oxo-3H,4H-pyrido[2,3-d]pyrimidin-3-yl]-5-fluorobenzonitrile]
	< 100	< 100	100 to 10000			CCN(CCN)Cc1c(-c2cc(C)cc(Cl)c2)cnc2nc(C)n(-c3cc(O)cc(F)c3)c(=O)c12 [Compound A-67, 5-{[(2-aminoethyl)(ethyl)amino]methyl}-6-(3-chloro-5-methylphenyl)-3-(3-fluoro-5-hydroxyphenyl)-2-methyl-3H,4H-pyrido[2,3-d]pyrimidin-4-one]
	< 100	< 100	< 100			CN(Cc1c(-c2cccc3ccccc23)cnc2ncn(-c3cccc(O)c3)c(=O)c12)CC1CCCCN1 (stereo not shown) [Compound A-69, 3-(3-hydroxy-phenyl)-5-[(methyl-piperidin-2-ylmethyl-amino)-methyl]-6-naphthalen-1-yl-3H-pyrido[2,3-d]pyrimidin-4-one]
> 10000	< 100	< 100	100 to 10000			CC[C@H](N)CN(C)Cc1c(-c2cc(C)cc(C)c2)cnc2ncn(-c3cccc(O)c3)c(=O)c12 [Compound A-61, 5-({[(2S)-2-aminobutyl](methyl)amino}methyl)-6-(3,5-dimethylphenyl)-3-(3-hydroxyphenyl)-3H,4H-pyrido[2,3-d]pyrimidin-4-one]
> 10000			100 to 10000	100 to 10000	< 100	Cc1cc(C)cc(-c2cnc3ncn(-c4cccc(C#N)c4)c(=O)c3c2CN(C)C[C@@H]2CCCN2)c1 [Compound A-42, 3-[6-(3,5-dimethylphenyl)-5-({methyl[(2S)-pyrrolidin-2-ylmethyl]amino}methyl)-4-oxo-3H,4H-pyrido[2,3-d]pyrimidin-3-yl]benzonitrile]
> 10000			< 100	100 to 10000	< 100	Cc1cc(C)cc(-c2cnc3ncn(-c4cc(C)cc(O)c4)c(=O)c3c2CN(C)C[C@@H]2CCCN2)c1 [Compound A-44, 6-(3,5-dimethylphenyl)-3-(3-hydroxy-5-methylphenyl)-5-({methyl[(2S)-pyrrolidin-2-ylmethyl]amino}methyl)-3H,4H-pyrido[2,3-d]pyrimidin-4-one]

From patent US9957267B2, “Somatostatin modulators and uses thereof” (Crinetics Pharmaceuticals, Inc., priority 2015, dated 2018)
